Here are results for one molecule from patent US5527940A, “Methanediphosphonate derivative, its manufacturing process and its pharmaceutical applications” (Toray Industries, Inc., priority 1991, dated 1996).

The test deals with IL-1 stimulated release of proteoglycan from cartilage cells. In words: Proteoglycan release from IL-1 stimulated rabbit knee joint cartilage cells (35S label). It counts as cell-based, New Zealand White rabbits. Conditions: 100 μM compound, IL-1β 30 units/ml, 24 hours. The protocol: When cartilage from a rabbit knee joint is isolated and cultured followed by IL-1 stimulation, proteoglycan of glycoprotein, the major component of cartilage, is released. The IL-1 inhibitory action of compounds of the present invention was measured as described below using this action as an index.
Exsanguination was performed on 3 week old, male New Zealand White rabbits having body weights of 250-300 g under diethyl ether anesthesia, after which the knee joints were removed. The cartilage portions of the knee joints were removed with a scalpel and immersed in a CMF solution comprising 0.14M sodium chloride, 4 mM potassium chloride, 0.4 mM sodium dihydrogen phosphate, 12 mM sodium bicarbonate, 0.2 mM potassium dihydrogen phosphate and 11 mM glucose. This cartilage was then placed in 0.1% EDTA and incubated for 20 minutes at 37° C. […]
The cell layer was dissolved by adding 200 μg of pronase E and treating for 24 hours at 37° C. […] The precipitated proteoglycan was collected in a glass filter, added to a liquid scintillator and counted with a liquid scintillation counter. […]
Each of the resulting counts were expressed as a percentage of the count obtained from the initially added inorganic sulfuric acid. […]

With `CSc1ccc(SC(P(=O)(O)O)P(=O)(O)O)cc1` [Example 2, (4-methylthiophenyl)thiomethanediphosphonic acid], the “Proteoglycan count, Cell Layer (percentage of the count from initially added inorganic sulfuric acid)” value (cell layer) came to 0.28 ± 0.019%. Besides, the “Proteoglycan count, Cell Supernatant (percentage of the count from initially added inorganic sulfuric acid)” value (cell supernatant) stood at 0.74 ± 0.061%.
